The term inhibition denotes the drop in the measured response relative to a control, in per cent.

The text below walks through data of PubChem BioAssay AID588643 (The Scripps Research Institute Molecular Screening Center, 2011).

SMILES strings stand for the structures. Active and inactive are the calls of the source.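 The calls were made as follows: active = phospho-ERK protein band moved at least 30% up or down from the DMSO-only control band; inactive = the rest.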

For assay [1], the target named is Mitogen-activated protein kinase 1 (Homo sapiens) (UniProt P28482). In words: phospho-ERK1/2 protein level change, either direction, late-stage follow-up, counter-screen for KLF5 inhibitor project, cell-based, HCT116 colorectal carcinoma, chemiluminescent western blot (AID 588643). To be noted: HCT116 phospho-ERK1/2 western blot, 24 h; at 10 µM; stronger effect = higher value. (In general: A counterscreen serves to expose hits that act by an unwanted route or on another target.)

Assay [2] has as its system HCT116 phospho-ERK1/2 western blot, 24 h. Described as above. To be noted: measured here: phospho-ERK fold change vs DMSO; at 10 µM; stronger effect = lower value.

With `CN(C(=O)COC(=O)/C=C/c1cccc([N+](=O)[O-])c1)C1CCS(=O)(=O)C1` (configuration not stated), the inhibition in assay [1] was -20% (inactive). The fold change in assay [2] is 1.2.
